These results are taken from PubChem BioAssay (NCI).

Among the test systems are U251 CNS; HT29 colon; UACC-257 melanoma; OVCAR-4 ovarian; HCC-2998 colon; TK-10 renal; ACHN renal; OVCAR-3 ovarian; MCF7 breast.
Assay in all cases: NCI tumour cell line growth inhibition, 48 h

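Protocol summary: plate cells (96-well), add compound at 5 concentrations, incubate 48 h, interpolate endpoints linearly. At the TGI there is no net growth.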 A value given as a limit tells only on which side of the number the result lay.

As to `C/C(=N\NC(N)=O)c1sc(-c2nc(C)c(/C(C)=N/NC(N)=O)s2)nc1C`, the TGI with U251 CNS, with HT29 colon, in the experiment with UACC-257 melanoma, in the experiment with OVCAR-4 ovarian, with HCC-2998 colon and with TK-10 renal was over 100 µM in each case. Also, the TGI in the experiment with ACHN renal and in the experiment with OVCAR-3 ovarian was over 100 µM throughout.

Regarding `O=c1[nH]c(=O)n(C2CC(O)C(CO)O2)cc1OS(=O)(=O)C(F)(F)F` (stereo not drawn), the TGI in the experiment with U251 CNS, in the experiment with HT29 colon, in the experiment with OVCAR-4 ovarian, in the experiment on HCC-2998 colon, with TK-10 renal and with ACHN renal was over 100 µM in each case. In the experiment with OVCAR-3 ovarian, this compound gave a TGI of over 100 µM.

With `CC12c3ccccc3C(OC=O)(c3ccccc31)C1(C)c3ccccc3C2(OC=O)c2ccccc21`, the TGI with U251 CNS, in the experiment on HT29 colon, in the experiment with UACC-257 melanoma, in the experiment on OVCAR-4 ovarian, in the experiment with HCC-2998 colon and with TK-10 renal was over 100 µM throughout. Moreover, the TGI in the experiment with ACHN renal and in the experiment on OVCAR-3 ovarian was over 100 µM in each case.

For `CNc1nc(N)nc(Nc2ccc(I)cc2)c1N=O`, the TGI in the experiment on HT29 colon, in the experiment on MCF7 breast, in the experiment on UACC-257 melanoma, with HCC-2998 colon, in the experiment on TK-10 renal and in the experiment with ACHN renal was over 100 µM throughout. The compound further displayed a TGI with OVCAR-3 ovarian of over 100 µM.

`CCOc1ccc(OCC(=O)O)c2c1CCCC2=O`: the TGI in the experiment with U251 CNS, in the experiment with HT29 colon, in the experiment with UACC-257 melanoma, in the experiment on OVCAR-4 ovarian, in the experiment with HCC-2998 colon and with TK-10 renal was over 100 µM throughout. Also, the TGI in the experiment with ACHN renal and with OVCAR-3 ovarian was over 100 µM throughout.

`COC(=N)c1csc(C2OC(CO)C(O)C2O)n1` (stereo not drawn): the TGI in the experiment with U251 CNS, with HT29 colon, in the experiment with UACC-257 melanoma, with OVCAR-4 ovarian, with HCC-2998 colon and with TK-10 renal was over 100 µM each time. Further, the TGI in the experiment with ACHN renal and in the experiment with OVCAR-3 ovarian was over 100 µM throughout.

`COc1cc(OC)c(OC)cc1/C=N/NC(=O)N/N=C/c1cc(OC)c(OC)cc1OC`: the TGI in the experiment on U251 CNS, in the experiment on HT29 colon, with UACC-257 melanoma, with OVCAR-4 ovarian, in the experiment with TK-10 renal and in the experiment on ACHN renal was over 100 µM in each case. This compound also gave a TGI with OVCAR-3 ovarian of over 100 µM.

For the compound `CCOC(=O)C(Br)=C1OC(=O)c2ccccc2-c2ccccc21` (mixture of isomers), the TGI turned out to be 59.4 µM in the experiment with U251 CNS; 29.5 µM in the experiment on HT29 colon; 48 µM in the experiment on UACC-257 melanoma; 38 µM in the experiment with HCC-2998 colon; 49 µM in the experiment with TK-10 renal; 29 µM with ACHN renal. The TGI in the experiment on OVCAR-3 ovarian amounted to 35.9 µM.

Turning to `O=C(c1ccc([N+](=O)[O-])cc1[N+](=O)[O-])N(/N=C/C=C/c1ccccc1)c1nnc(-c2ccccc2)c(-c2ccccc2)n1`, the TGI in the experiment with U251 CNS is over 100 µM; with HT29 colon, over 100 µM; in the experiment with UACC-257 melanoma it was over 100 µM; with OVCAR-4 ovarian, 76.6 µM; with HCC-2998 colon, over 100 µM; in the experiment on TK-10 renal it was 78 µM. Moreover, the values for the TGI in the experiment with ACHN renal and with OVCAR-3 ovarian were 78.1 µM and over 100 µM, respectively.

Regarding `CCOc1ccc(NC(=O)CC2SC(=Nc3ccc(C)cc3C)NC2=O)cc1` (stereo not drawn), the TGI in the experiment with U251 CNS, in the experiment on HT29 colon, in the experiment on UACC-257 melanoma, with OVCAR-4 ovarian, in the experiment on HCC-2998 colon and with TK-10 renal was over 100 µM in each case. Also, the TGI in the experiment on ACHN renal and in the experiment on OVCAR-3 ovarian was over 100 µM in each case.

Consider `CC(C)C1CN(C(=O)OCc2ccccc2)C2N1C(=O)C2(C)OCc1ccccc1` (stereo not drawn), for which the TGI is over 100 µM in the experiment with U251 CNS; over 100 µM with HT29 colon; 96.9 µM with UACC-257 melanoma; over 100 µM in the experiment with OVCAR-4 ovarian; over 100 µM with HCC-2998 colon; over 100 µM in the experiment with TK-10 renal. In addition, the TGI in the experiment on ACHN renal and in the experiment on OVCAR-3 ovarian was over 100 µM each time.

On to `CCC(C)(C)n1c(C)nc2c1C(=O)c1ccccc1C2=O`, for which the TGI is over 100 µM with U251 CNS; over 100 µM in the experiment on HT29 colon; 84.4 µM in the experiment with UACC-257 melanoma; over 100 µM in the experiment with OVCAR-4 ovarian; over 100 µM in the experiment on HCC-2998 colon; over 100 µM in the experiment with TK-10 renal. Further, the TGI with ACHN renal and with OVCAR-3 ovarian was over 100 µM each time.

With `COCOCCC#CCO`, the TGI in the experiment with U251 CNS, in the experiment on HT29 colon, in the experiment with UACC-257 melanoma, in the experiment with HCC-2998 colon, in the experiment with TK-10 renal and in the experiment on ACHN renal was over 100 µM in each case. In the experiment with OVCAR-3 ovarian, the TGI is over 100 µM.

`CN1Nc2ccccc2CC1=O`: the TGI with U251 CNS, in the experiment on HT29 colon, with UACC-257 melanoma, in the experiment on OVCAR-4 ovarian, in the experiment on HCC-2998 colon and in the experiment with TK-10 renal was over 100 µM throughout. Besides, the TGI in the experiment on ACHN renal and in the experiment on OVCAR-3 ovarian was over 100 µM throughout.

In the case of `O=C1C=C(Nc2ccc(Cl)cc2C(=O)c2ccccc2)c2ccccc2C1=O`, the TGI in the experiment with U251 CNS, in the experiment with HT29 colon, in the experiment on UACC-257 melanoma, in the experiment on OVCAR-4 ovarian, with HCC-2998 colon and in the experiment on TK-10 renal was over 100 µM each time. Besides, the TGI in the experiment with ACHN renal and in the experiment on OVCAR-3 ovarian was over 100 µM throughout.

With `Oc1oc(C(=C2N=c3ccccc3=N2)c2ccc(Cl)cc2)c(O)c1-c1ccc(Cl)cc1`, the TGI in the experiment with U251 CNS was 22.9 µM; in the experiment with HT29 colon it was 10.7 µM; with UACC-257 melanoma, 6.45 µM; with OVCAR-4 ovarian it was over 100 µM; in the experiment on HCC-2998 colon, 20.8 µM; with TK-10 renal, 11.5 µM. Further, the figures for the TGI with ACHN renal and with OVCAR-3 ovarian were 14.7 µM and over 100 µM, respectively.
